Test results reported in the supplement of paper PMC11208160.

Assay: recombinant UMI read abundance after kanamycin selection (control-corrected) (log10(CPM+1)); higher = more efficient recombination; extreme values may be limits of the assay; sequences stand for … in AGTGCAGAGAAAATCGGCCAGTTTTCTCTGCCTGCAGTCCGCATGCCGTGGGACCCCTTGGGTTCTAACCTGTTGCCTAGATTTATGCAGCGGACTGCCTTTCTCCCAAAGTGATAAACCGG…AGGTTGGTTTCACT; site = the 11-nt donor
Method in brief: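 Under IPTG (0.07 mM) plus kanamycin, or without selection, Escherichia coli carrying a UMI-tagged donor and donor-binding-loop pair library and a target plasmid for the IS621 bridge recombinase were plated in two replicates. Recombinant UMIs were PCR-amplified across the donor–target junction and sequenced. Counts were converted to CPM, averaged over replicates, scaled by control-derived factors and reported as log10(CPM+1).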
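Further: IS621 bridge recombinase in Escherichia coli cells against a fixed T5 target plasmid.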

For “GGTTCCCCATGGACCGGTTTTCCCGGTAATCCGTATTTGTA (site AGTTCCCCTTA)”, which “recombinant UMI read abundance (log10)” value is on record?
Its value is 0.0122.

Which “recombinant UMI read abundance (log10)” value does the source give for “GGTTCCCCATGGACCGGTTTTCCCGGTAATCCGTATTTGTA (site CGTTCCCCTTA)” here?
Its value is 0.00861.

For “GGTTCCCCATGGACCGGTTTTCCCGGTAATCCGTATTTGTA (site GGTTCCCCTTA)”, which “recombinant UMI read abundance (log10)” value is on record?
The value was 0.0107.

With “GGTTCCCCATGGACCGGTTTTCCCGGTAATCCGTATTTGTA (site TGTTCCCCTTA)” as the sequence, how does the “recombinant UMI read abundance (log10)” value read?
The value was 0.0103.

With “GGTTCCGCATGGACCGGTTTTCCCGGTAATCCGTATTTGAA (site GGTTCCGCTTT)” as the sequence, how does the “recombinant UMI read abundance (log10)” value read?
The value was 0.

With “GGTTCTACATGGACCGGTTTTCCCGGTAATCCGTATTTGAG (site GGTTCTACTCT)” as the sequence, how does the “recombinant UMI read abundance (log10)” value read?
Its value is 0.316.

Which “recombinant UMI read abundance (log10)” value does the source give for “GGTTGGTCATGGACCGGTTTTCCCGGTAATCCGTATTTGCA (site GGTTGGTCTTG)” here?
Its value is 1.59.

Which “recombinant UMI read abundance (log10)” value does the source give for “GGTTTGTCATGGACCGGTTTTCCCGGTAATCCGTATTTGTG (site GGTTTGTCTCA)” here?
The value was 1.21.

With “GTAAAATCATGGACCGGTTTTCCCGGTAATCCGTATTTGCA (site GTAAAATCTTG)” as the sequence, how does the “recombinant UMI read abundance (log10)” value read?
The value was 1.81.

With “GTAAAGACATGGACCGGTTTTCCCGGTAATCCGTATTTGGG (site GTAAAGACTCC)” as the sequence, how does the “recombinant UMI read abundance (log10)” value read?
Its value is 0.889.

Which “recombinant UMI read abundance (log10)” value does the source give for “GTAACGCCATGGACCGGTTTTCCCGGTAATCCGTATTTGTC (site GTAACGCCTGA)” here?
Its value is 0.

With “GTAAGTTCATGGACCGGTTTTCCCGGTAATCCGTATTTGTC (site GTAAGTTCTGA)” as the sequence, how does the “recombinant UMI read abundance (log10)” value read?
Its value is 2.1.

For “GTACAAGCATGGACCGGTTTTCCCGGTAATCCGTATTTGCA (site GTACAAGCTTG)”, which “recombinant UMI read abundance (log10)” value is on record?
Its value is 2.69.

With “GTACCCACATGGACCGGTTTTCCCGGTAATCCGTATTTGTC (site GTACCCACTGA)” as the sequence, how does the “recombinant UMI read abundance (log10)” value read?
Its value is 2.64.

With “GTACCTTCATGGACCGGTTTTCCCGGTAATCCGTATTTGAC (site GTACCTTCTGT)” as the sequence, how does the “recombinant UMI read abundance (log10)” value read?
Its value is 2.06.

With “GTACGCACATGGACCGGTTTTCCCGGTAATCCGTATTTGTA (site GTAAGCACTTA)” as the sequence, how does the “recombinant UMI read abundance (log10)” value read?
The value was 0.0204.

With “GTACGCACATGGACCGGTTTTCCCGGTAATCCGTATTTGTA (site GTACGCACTTA)” as the sequence, how does the “recombinant UMI read abundance (log10)” value read?
Its value is 2.17.

Which “recombinant UMI read abundance (log10)” value does the source give for “GTACGCACATGGACCGGTTTTCCCGGTAATCCGTATTTGTA (site GTAGGCACTTA)” here?
The value was 0.0167.

For “GTACGCACATGGACCGGTTTTCCCGGTAATCCGTATTTGTA (site GTATGCACTTA)”, which “recombinant UMI read abundance (log10)” value is on record?
Its value is 0.266.

With “GTACTTCCATGGACCGGTTTTCCCGGTAATCCGTATTTGCT (site GTACTTCCTAG)” as the sequence, how does the “recombinant UMI read abundance (log10)” value read?
The value was 1.14.

With “GTAGCCGCATGGACCGGTTTTCCCGGTAATCCGTATTTGCG (site GTAGACGCTCG)” as the sequence, how does the “recombinant UMI read abundance (log10)” value read?
Its value is 0.446.

With “GTAGCCGCATGGACCGGTTTTCCCGGTAATCCGTATTTGCG (site GTAGCCGCTCG)” as the sequence, how does the “recombinant UMI read abundance (log10)” value read?
Its value is 2.08.

Which “recombinant UMI read abundance (log10)” value does the source give for “GTAGCCGCATGGACCGGTTTTCCCGGTAATCCGTATTTGCG (site GTAGGCGCTCG)” here?
Its value is 0.0284.

With “GTAGCCGCATGGACCGGTTTTCCCGGTAATCCGTATTTGCG (site GTAGTCGCTCG)” as the sequence, how does the “recombinant UMI read abundance (log10)” value read?
The value was 0.781.

For “GTAGCCTCATGGACCGGTTTTCCCGGTAATCCGTATTTGTT (site GTAGCCTCTAA)”, which “recombinant UMI read abundance (log10)” value is on record?
Its value is 2.42.

With “GTAGCGACATGGACCGGTTTTCCCGGTAATCCGTATTTGTC (site GTAGCGACTGA)” as the sequence, how does the “recombinant UMI read abundance (log10)” value read?
Its value is 2.92.

Which “recombinant UMI read abundance (log10)” value does the source give for “GTAGCTACATGGACCGGTTTTCCCGGTAATCCGTATTTGAC (site GTAGATACTGT)” here?
The value was 1.02.

With “GTAGCTACATGGACCGGTTTTCCCGGTAATCCGTATTTGAC (site GTAGCTACTGT)” as the sequence, how does the “recombinant UMI read abundance (log10)” value read?
The value was 2.4.

For “GTAGCTACATGGACCGGTTTTCCCGGTAATCCGTATTTGAC (site GTAGGTACTGT)”, which “recombinant UMI read abundance (log10)” value is on record?
The value was 0.

With “GTAGCTACATGGACCGGTTTTCCCGGTAATCCGTATTTGAC (site GTAGTTACTGT)” as the sequence, how does the “recombinant UMI read abundance (log10)” value read?
Its value is 1.7.

Which “recombinant UMI read abundance (log10)” value does the source give for “GTAGGCACATGGACCGGTTTTCCCGGTAATCCGTATTTGTA (site GTAAGCACTTA)” here?
The value was 1.08.

With “GTAGGCACATGGACCGGTTTTCCCGGTAATCCGTATTTGTA (site GTACGCACTTA)” as the sequence, how does the “recombinant UMI read abundance (log10)” value read?
Its value is 0.279.

For “GTAGGCACATGGACCGGTTTTCCCGGTAATCCGTATTTGTA (site GTAGGCACTTA)”, which “recombinant UMI read abundance (log10)” value is on record?
The value was 1.29.

For “GTAGGCACATGGACCGGTTTTCCCGGTAATCCGTATTTGTA (site GTATGCACTTA)”, which “recombinant UMI read abundance (log10)” value is on record?
The value was 0.019.

With “GTAGGCTCATGGACCGGTTTTCCCGGTAATCCGTATTTGCA (site GTAGGCTCTTG)” as the sequence, how does the “recombinant UMI read abundance (log10)” value read?
The value was 2.94.

For “GTAGGTACATGGACCGGTTTTCCCGGTAATCCGTATTTGAA (site GTAGGTACTAT)”, which “recombinant UMI read abundance (log10)” value is on record?
The value was 0.

Which “recombinant UMI read abundance (log10)” value does the source give for “GTAGGTACATGGACCGGTTTTCCCGGTAATCCGTATTTGAA (site GTAGGTACTCT)” here?
Its value is 0.518.

Which “recombinant UMI read abundance (log10)” value does the source give for “GTAGGTACATGGACCGGTTTTCCCGGTAATCCGTATTTGAA (site GTAGGTACTGT)” here?
The value was 0.479.

Which “recombinant UMI read abundance (log10)” value does the source give for “GTAGGTACATGGACCGGTTTTCCCGGTAATCCGTATTTGAA (site GTAGGTACTTT)” here?
The value was 1.75.

Which “recombinant UMI read abundance (log10)” value does the source give for “GTAGGTACATGGACCGGTTTTCCCGGTAATCCGTATTTGCC (site GTAGGTACTGA)” here?
Its value is 0.73.

Which “recombinant UMI read abundance (log10)” value does the source give for “GTAGGTACATGGACCGGTTTTCCCGGTAATCCGTATTTGCC (site GTAGGTACTGC)” here?
The value was 0.00606.

For “GTAGGTACATGGACCGGTTTTCCCGGTAATCCGTATTTGCC (site GTAGGTACTGG)”, which “recombinant UMI read abundance (log10)” value is on record?
The value was 0.956.

For “GTAGGTACATGGACCGGTTTTCCCGGTAATCCGTATTTGCC (site GTAGGTACTGT)”, which “recombinant UMI read abundance (log10)” value is on record?
The value was 0.441.

Which “recombinant UMI read abundance (log10)” value does the source give for “GTAGGTGCATGGACCGGTTTTCCCGGTAATCCGTATTTGAC (site GTAGGTACTGT)” here?
The value was 2.25.

Which “recombinant UMI read abundance (log10)” value does the source give for “GTAGGTGCATGGACCGGTTTTCCCGGTAATCCGTATTTGAC (site GTAGGTCCTGT)” here?
Its value is 0.618.

Which “recombinant UMI read abundance (log10)” value does the source give for “GTAGGTGCATGGACCGGTTTTCCCGGTAATCCGTATTTGAC (site GTAGGTGCTGT)” here?
Its value is 2.74.

With “GTAGGTGCATGGACCGGTTTTCCCGGTAATCCGTATTTGAC (site GTAGGTTCTGT)” as the sequence, how does the “recombinant UMI read abundance (log10)” value read?
Its value is 1.1.

For “GTAGTCGCATGGACCGGTTTTCCCGGTAATCCGTATTTGAG (site GTAGTCGCTCA)”, which “recombinant UMI read abundance (log10)” value is on record?
The value was 0.017.

Which “recombinant UMI read abundance (log10)” value does the source give for “GTAGTCGCATGGACCGGTTTTCCCGGTAATCCGTATTTGAG (site GTAGTCGCTCC)” here?
The value was 0.924.

For “GTAGTCGCATGGACCGGTTTTCCCGGTAATCCGTATTTGAG (site GTAGTCGCTCG)”, which “recombinant UMI read abundance (log10)” value is on record?
The value was 0.73.

Which “recombinant UMI read abundance (log10)” value does the source give for “GTAGTCGCATGGACCGGTTTTCCCGGTAATCCGTATTTGAG (site GTAGTCGCTCT)” here?
Its value is 1.5.

Which “recombinant UMI read abundance (log10)” value does the source give for “GTAGTCGCATGGACCGGTTTTCCCGGTAATCCGTATTTGCA (site GTAGTCGCTAG)” here?
The value was 0.762.
